Laboratory results taken from ChEMBL document CHEMBL1201862, “PubChem BioAssay data set” (2004).
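Five concentrations, 48 hours, 96-well plates. Here, GI50 denotes the concentration required for 50% inhibition of growth.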 Active and inactive are the calls of the source. Cut-off read from the data, not from the text of the source: active = GI50 up to about 1.1 µM and inactive = higher.

Columns and labels:
Test in all cases: NCI-60 cell line screen, 48 h
OVCAR-5 = test system: OVCAR-5
A549 = test system: A549
SNB-19 = test system: SNB-19
M14 = test system: M14
SK-MEL-5 = test system: SK-MEL-5
SNB-78 = test system: SNB-78
LOX IMVI = test system: LOX IMVI
EKVX = test system: EKVX
A498 = test system: A498
SK-OV-3 = test system: SK-OV-3
SR = test system: SR
M19-MEL = test system: M19-MEL
DLD-1 = test system: DLD-1
HOP-92 = test system: HOP-92
DMS-114 = test system: DMS-114
COLO 205 = test system: COLO 205
OVCAR-8 = test system: OVCAR-8
HCC 2998 = test system: HCC 2998
TK-10 = test system: TK-10
786-0 = test system: 786-0
ACHN = test system: ACHN
DMS-273 = test system: DMS-273
SK-MEL-2 = test system: SK-MEL-2
KM12 = test system: KM12
U-251 = test system: U-251
NCI-H23 = test system: NCI-H23
RPMI-8226 = test system: RPMI-8226
SN12C = test system: SN12C
CCRF-CEM = test system: CCRF-CEM
NCI-H460 = test system: NCI-H460
NCI-H522 = test system: NCI-H522
SK-MEL-28 = test system: SK-MEL-28
IGROV-1 = test system: IGROV-1
SNB-75 = test system: SNB-75
Malme-3M = test system: Malme-3M
XF498 = test system: XF498
UACC-62 = test system: UACC-62
CAKI-1 = test system: CAKI-1
HL-60 = test system: HL-60
OVCAR-3 = test system: OVCAR-3
NCI-H226 = test system: NCI-H226
HCT-15 = test system: HCT-15
SF-268 = test system: SF-268
HOP-62 = test system: HOP-62
SF-295 = test system: SF-295
HCT-116 = test system: HCT-116
SW-620 = test system: SW-620
SF-539 = test system: SF-539
OVCAR-4 = test system: OVCAR-4
K562 = test system: K562
HT-29 = test system: HT-29
HOP-18 = test system: HOP-18
UACC-257 = test system: UACC-257
KM-20L2 = test system: KM-20L2
MOLT-4 = test system: MOLT-4
UO-31 = test system: UO-31
RXF 393 = test system: RXF 393
LXFL 529 = test system: LXFL 529

## CC(=O)OCC(=O)[C@@]1(O)CC[C@H]2[C@@H]3CCC4=CC(=O)[C@H](C)C[C@]4(C)[C@H]3[C@@H](O)C[C@@]21C
OVCAR-5
  GI50: > 100 µM (inactive)
A549
  GI50: > 100 µM (inactive)
SNB-19
  GI50: > 100 µM (inactive)
M14
  GI50: > 100 µM (inactive)
SK-MEL-5
  GI50: > 100 µM (inactive)
SNB-78
  GI50: 9.77 µM (inactive)
LOX IMVI
  GI50: > 100 µM (inactive)
EKVX
  GI50: > 100 µM (inactive)
A498
  GI50: > 100 µM (inactive)
SK-OV-3
  GI50: > 100 µM (inactive)
SR
  GI50: > 100 µM (inactive)
M19-MEL
  GI50: > 100 µM (inactive)
DLD-1
  GI50: > 100 µM (inactive)
HOP-92
  GI50: > 100 µM (inactive)
DMS-114
  GI50: > 100 µM (inactive)
COLO 205
  GI50: > 100 µM (inactive)
OVCAR-8
  GI50: > 100 µM (inactive)
HCC 2998
  GI50: > 100 µM (inactive)
TK-10
  GI50: > 100 µM (inactive)
786-0
  GI50: > 100 µM (inactive)
ACHN
  GI50: > 100 µM (inactive)
DMS-273
  GI50: > 100 µM (inactive)
SK-MEL-2
  GI50: > 100 µM (inactive)
KM12
  GI50: > 100 µM (inactive)
U-251
  GI50: > 100 µM (inactive)
NCI-H23
  GI50: > 100 µM (inactive)
RPMI-8226
  GI50: > 100 µM (inactive)
SN12C
  GI50: > 100 µM (inactive)
CCRF-CEM
  GI50: > 100 µM (inactive)
NCI-H460
  GI50: > 100 µM (inactive)
NCI-H522
  GI50: > 100 µM (inactive)
SK-MEL-28
  GI50: > 100 µM (inactive)
IGROV-1
  GI50: > 100 µM (inactive)
SNB-75
  GI50: > 100 µM (inactive)
Malme-3M
  GI50: > 100 µM (inactive)
XF498
  GI50: > 100 µM (inactive)
UACC-62
  GI50: > 100 µM (inactive)
CAKI-1
  GI50: > 100 µM (inactive)
HL-60
  GI50: > 100 µM (inactive)
OVCAR-3
  GI50: > 100 µM (inactive)
NCI-H226
  GI50: > 100 µM (inactive)
HCT-15
  GI50: > 100 µM
SF-268
  GI50: > 100 µM (inactive)
HOP-62
  GI50: > 100 µM (inactive)
SF-295
  GI50: > 100 µM (inactive)
HCT-116
  GI50: > 100 µM (inactive)
SW-620
  GI50: > 100 µM (inactive)
SF-539
  GI50: > 100 µM (inactive)
OVCAR-4
  GI50: > 100 µM (inactive)
K562
  GI50: > 100 µM (inactive)
HT-29
  GI50: > 100 µM (inactive)
HOP-18
  GI50: > 100 µM (inactive)
UACC-257
  GI50: > 100 µM (inactive)
KM-20L2
  GI50: > 100 µM (inactive)

## NC(=S)/N=C(/c1nc2ccc(Cl)cc2nc1O)C(O)c1ccccc1Cl (stereo unspecified)
OVCAR-5
  GI50: > 100 µM (inactive)
A549
  GI50: > 100 µM (inactive)
M14
  GI50: > 100 µM (inactive)
LOX IMVI
  GI50: > 100 µM (inactive)
EKVX
  GI50: > 100 µM (inactive)
A498
  GI50: > 100 µM (inactive)
SK-OV-3
  GI50: > 100 µM (inactive)
DLD-1
  GI50: > 100 µM (inactive)
HOP-92
  GI50: > 100 µM (inactive)
DMS-114
  GI50: > 100 µM (inactive)
COLO 205
  GI50: > 100 µM (inactive)
OVCAR-8
  GI50: > 100 µM (inactive)
HCC 2998
  GI50: > 100 µM (inactive)
TK-10
  GI50: > 100 µM (inactive)
786-0
  GI50: > 100 µM (inactive)
ACHN
  GI50: > 100 µM (inactive)
DMS-273
  GI50: > 100 µM (inactive)
SK-MEL-2
  GI50: > 100 µM (inactive)
KM12
  GI50: > 100 µM (inactive)
U-251
  GI50: > 100 µM (inactive)
NCI-H23
  GI50: > 100 µM (inactive)
RPMI-8226
  GI50: > 100 µM (inactive)
MOLT-4
  GI50: > 100 µM (inactive)
CCRF-CEM
  GI50: > 100 µM (inactive)
NCI-H460
  GI50: > 100 µM (inactive)
NCI-H522
  GI50: > 100 µM (inactive)
SK-MEL-28
  GI50: > 100 µM (inactive)
IGROV-1
  GI50: > 100 µM (inactive)
SNB-75
  GI50: > 100 µM (inactive)
Malme-3M
  GI50: > 100 µM (inactive)
XF498
  GI50: > 100 µM (inactive)
UO-31
  GI50: > 100 µM (inactive)
UACC-62
  GI50: > 100 µM (inactive)
HL-60
  GI50: > 100 µM (inactive)
NCI-H226
  GI50: > 100 µM (inactive)
HCT-15
  GI50: > 100 µM
SF-268
  GI50: > 100 µM (inactive)
HOP-62
  GI50: > 100 µM (inactive)
RXF 393
  GI50: > 100 µM (inactive)
SF-295
  GI50: > 100 µM (inactive)
SW-620
  GI50: > 100 µM (inactive)
SF-539
  GI50: > 100 µM (inactive)
OVCAR-4
  GI50: > 100 µM (inactive)
K562
  GI50: > 100 µM (inactive)
HT-29
  GI50: > 100 µM (inactive)
HOP-18
  GI50: 33.8 µM (inactive)
UACC-257
  GI50: > 100 µM (inactive)
LXFL 529
  GI50: > 100 µM (inactive)
KM-20L2
  GI50: > 100 µM (inactive)

## COc1cc(Cc2cc(OC)c(OC)c(OC)c2)ccc1O
OVCAR-5
  GI50: > 100 µM (inactive)
A549
  GI50: 8.59 µM (inactive)
SNB-19
  GI50: 23.9 µM (inactive)
M14
  GI50: 5 µM (inactive)
SK-MEL-5
  GI50: 3.85 µM (inactive)
SNB-78
  GI50: 40.6 µM (inactive)
LOX IMVI
  GI50: 8.57 µM (inactive)
EKVX
  GI50: 27 µM (inactive)
SK-OV-3
  GI50: 39.4 µM (inactive)
SR
  GI50: 6.08 µM (inactive)
M19-MEL
  GI50: 6.38 µM (inactive)
DLD-1
  GI50: 6.11 µM (inactive)
HOP-92
  GI50: 19.3 µM (inactive)
DMS-114
  GI50: 4.63 µM (inactive)
COLO 205
  GI50: 77.8 µM (inactive)
OVCAR-8
  GI50: 25.5 µM (inactive)
HCC 2998
  GI50: 27 µM (inactive)
TK-10
  GI50: 88.5 µM (inactive)
786-0
  GI50: 29.7 µM (inactive)
ACHN
  GI50: 40.9 µM (inactive)
SK-MEL-2
  GI50: 3.11 µM (inactive)
KM12
  GI50: 6.62 µM (inactive)
U-251
  GI50: 19.9 µM (inactive)
NCI-H23
  GI50: 11.2 µM (inactive)
RPMI-8226
  GI50: 8.39 µM (inactive)
SN12C
  GI50: 21.8 µM (inactive)
MOLT-4
  GI50: 4.27 µM (inactive)
CCRF-CEM
  GI50: 6.32 µM (inactive)
NCI-H522
  GI50: 9.31 µM (inactive)
SK-MEL-28
  GI50: 39.7 µM (inactive)
IGROV-1
  GI50: > 100 µM (inactive)
SNB-75
  GI50: 2.88 µM (inactive)
Malme-3M
  GI50: 2.41 µM (inactive)
XF498
  GI50: 19.9 µM (inactive)
UO-31
  GI50: 52.6 µM (inactive)
UACC-62
  GI50: 9.95 µM (inactive)
CAKI-1
  GI50: 62.1 µM (inactive)
HL-60
  GI50: 2.27 µM (inactive)
OVCAR-3
  GI50: 9.23 µM (inactive)
NCI-H226
  GI50: 93.1 µM (inactive)
HCT-15
  GI50: 3.28 µM
SF-268
  GI50: 36.3 µM (inactive)
HOP-62
  GI50: 26.8 µM (inactive)
SF-295
  GI50: 4.57 µM (inactive)
HCT-116
  GI50: 5.19 µM (inactive)
SW-620
  GI50: 3.56 µM (inactive)
SF-539
  GI50: 9.31 µM (inactive)
OVCAR-4
  GI50: 82.2 µM (inactive)
K562
  GI50: 3.61 µM (inactive)
HT-29
  GI50: 34.8 µM (inactive)
UACC-257
  GI50: 22.4 µM (inactive)
LXFL 529
  GI50: 43.6 µM (inactive)
KM-20L2
  GI50: 36.5 µM (inactive)
